This is an account of results in paper PMC9679916 (Biomacromolecules, 2021).

One assay addresses T1, human MRP-14 (hS100A9) (Homo sapiens, UniProt P06702).
T1 sequence (P06702 1-114): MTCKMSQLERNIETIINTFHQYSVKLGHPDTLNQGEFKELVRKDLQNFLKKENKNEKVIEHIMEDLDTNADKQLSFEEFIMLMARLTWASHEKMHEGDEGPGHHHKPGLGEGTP
Briefly: ELISA-based binding affinity of MRP-14-targeted TMV, human protein. Particulars: read-out: KD (nM) human MRP-14, hS100A9 2 μg/mL coated, TMV 0-5 μg/mL, anti-TMV detection, single-site binding model, estimated.

In another assay the target is T2, mouse MRP-14 (mS100A9) (Mus musculus, UniProt P31725).
T2 sequence (P31725 1-113): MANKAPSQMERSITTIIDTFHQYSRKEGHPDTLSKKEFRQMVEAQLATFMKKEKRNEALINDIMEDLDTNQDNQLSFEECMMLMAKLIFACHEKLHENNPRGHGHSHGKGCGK
The assay is described as follows: ELISA-based binding affinity of MRP-14-targeted TMV, mouse protein. The settings on record: for Kd: read-out: KD (nM) mouse MRP-14, ELISA, mS100A9 2 μg/mL coated, TMV 0-5 μg/mL, anti-TMV detection, single-site binding model, estimated.

The test system of assay [1] is deep vein thrombi in inferior vena cava. Briefly: Murine DVT model. It is filed as in vivo, mouse. The settings on record: vs PBS group, 3 h postinjection.
The target in assay [2] is T3, His-tagged MRP-14 (myeloid related protein 14) (human, UniProt P06702 1-114).
T3 sequence: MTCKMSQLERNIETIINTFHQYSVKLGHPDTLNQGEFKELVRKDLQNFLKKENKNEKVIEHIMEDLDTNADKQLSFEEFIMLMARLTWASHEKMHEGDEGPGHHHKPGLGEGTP
The assay is described as follows: SPR.

For assay [3], the target named is T4, MRP-8/14 heterodimer (untagged MRP-8 premixed 1:1 with His-tagged MRP-14) (human | , UniProt P06702;P05109).
T4 sequence 1: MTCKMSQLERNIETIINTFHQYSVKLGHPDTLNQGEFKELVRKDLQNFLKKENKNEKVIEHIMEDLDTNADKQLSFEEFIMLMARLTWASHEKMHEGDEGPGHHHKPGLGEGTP
T4 sequence 2: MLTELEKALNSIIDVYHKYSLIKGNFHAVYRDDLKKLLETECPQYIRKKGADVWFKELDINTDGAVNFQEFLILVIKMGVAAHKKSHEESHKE
Briefly: SPR. (In SPR one partner is held on a chip, and binding of the other changes the refractive index at the surface.)

Bridges are numbered along the chain shown (N, C = ends). Where no end group is shown, it is not given here.

Turning to “ACNSVHQHHCGGGS-N3 (disulfide) [TMV-MTP6]”, the Kd is 11.4 nM on human MRP-14 (hS100A9) and 2.6 nM on mouse MRP-14 (mS100A9). On mouse MRP-14 (mS100A9) (ratio of ELISA KD values, mouse vs human MRP-14), the “binding affinity, times stronger toward mouse than human MRP-14” value is given as ~ 4 times.

As for ASSHIHHGGGS-C [CPMV-MTP2], the “reduction in thrombus weight and area” value in assay [1] came out at 50%.

As for ASSHIHHGGGS-C [TMV-MTP2], the Kd at human MRP-14 (hS100A9) was 13.1 nM; at mouse MRP-14 (mS100A9), 11.9 nM.

Turning to HNHMADPGGGS-NH2 [MTP3 synthetic peptide with GGGS spacer], the Kd in assay [2] stood at 117 µM.

With ACNSVHQHHCGGGS [MTP6 synthetic peptide with GGGS spacer], the Kd in assay [3] was found to be 57.6 µM; in assay [2], 39.6 µM.

The molecule ACNSHRHGACGGGS-NH2 (disulfide 2-10 (inferred)) [MTP5 synthetic peptide with GGGS spacer] had a Kd in assay [2] of 67.6 µM.
